Melting point data for 90 molecules are collected here from a melting point compilation (Tetko et al.; mined from patent text by program, amines drawn as free bases though some values may be those of a salt).

Broadly, the melting point is the temperature, or range, at which the solid turns liquid. The molecule `CC1(c2ccccc2)C2=C(COC2=O)Nc2cc3c(cc21)OCO3` (stereo not given) showed a melting point of over 260 °C.
To `CCCN(C)CCCN1CCN(c2cc(-c3ccnc(NCc4cccc(OC)c4)n3)cc3ccc(OC)cc23)CC1` belongs 156 to 160 °C; to `C[Si](C)(Cn1ccnc1)c1ccc(-c2ccccc2)cc1`, 51 to 53 °C.
In the case of `CN(C)CCOc1cc(-c2ccccc2)nn1N` it was 80 °C; in that of `Cc1nc(NC(=O)C2CC2)sc1C(=O)NCc1ccccc1`, 241 to 243 °C; in that of `CN(C)C1CCN(Cc2ccc3c(c2)Cc2c(-c4cccs4)n[nH]c2-3)CC1`, 96 to 98 °C.
To `COC(=O)C1CSC(c2cc3ccccc3n2C)=N1` (stereo not given) belongs 78 to 80 °C; to `NC(=O)c1ccc(Cn2ccc(OCc3ccc(F)cc3F)c(Br)c2=O)cc1`, 235 to 238 °C; to `O=C1NCCc2sc3ccccc3c21`, 143 to 144 °C.
For the molecule `CC(SC1COC(c2ccc(C(=O)Nc3ccc(C(F)(F)F)cc3)cc2)OC1)C(O)(Cn1cncn1)c1ccc(F)cc1F` (stereo not given), the melting point stood at 210 °C.
In the case of `C=Cc1c(C)c(NC(=O)CC(C)(C)C)c(C)c2c1OCC2c1ccc(C(C)C)cc1` (stereo not given) it was 171 to 172 °C; in that of `CN1CCC(NCc2ccccc2)(c2ccccc2)C(O)C1` (stereo not given), 162 to 164 °C.
To `CC(=O)C(=[N+]=[N-])C(=O)c1ccccn1` belongs 69 to 74 °C.
In turn, `CC(C)(C)C(=O)c1ccc(C(=O)N(C(=O)c2ccc(C(=O)C(C)(C)C)cc2)C(=O)c2ccccc2C(=O)C(C)(C)C)cc1` yielded a melting point of 185 to 188 °C.
In the case of `CCC1(CC)CC(=O)c2cc(C#N)ccc2O1` it was 71 to 72 °C.
In the case of `CN1CCC(C2CCN(c3ncc4ncnc(Nc5ccc(F)c(Cl)c5)c4n3)CC2)CC1` it was 159 to 162 °C; in that of `CC(=O)NC(C)c1cc(S(N)(=O)=O)sc1S(C)(=O)=O` (stereo not given), 114 to 117 °C.
In the case of `COc1nsnc1S(C)(=O)=O` it was 110 to 112 °C; in that of `CCOC(=O)c1cc2cc(NC(C)=O)ccc2[nH]1`, 202 to 203 °C; in that of `COC(=O)CCC(=O)c1ccc(-c2ccc(Br)cc2F)cc1`, 94 to 95 °C.
`O=C(c1ccccc1)c1cc(CN2CCN(c3ccccc3)CC2)on1`: the melting point was in the range of 100 to 102 °C.
Take `CCOC(=O)Cc1nc(-c2ccc(Cl)cc2)oc1-c1cccs1`: the melting point fell in the range of 119 to 120 °C.
`CCOC1CC2(C)C(CCC3C4CCC(C(C)=O)C4(C)CC(NCCC(C)C)C32)CC1O` (stereo not given) returned a melting point of 110 to 112 °C.
To `COc1cc(C)c(C)[nH]c1=O` belongs 215 to 219 °C; to `Cc1cc(-c2nc3ccccc3c(=O)n2-c2ccc(Br)cc2)cc(C)c1OCCO`, 164 to 165 °C; to `CS(=O)(=O)OC[C@H]1CCn2c(cc3ccccc32)C1`, 114 to 115 °C.
In turn, `CC1Cn2c(nc3c(c2=O)CCCC3)-c2[nH]c3ccccc3c21` (stereo not given) came in with a melting point of 220 to 221 °C.
In the case of `CCCCCC1OCc2cc(C#N)ccc2O1` (stereo not given) it was 40.5 to 41 °C.
In turn, `CCCCCCCCCCCCCCCCCCNC(=O)Oc1ccc([N+](=O)[O-])cc1OC(=O)NCCCCCCCCCCCCCCCCCC` yielded a melting point of 117 to 121 °C.
In the case of `CCOC(=O)C(=CNc1cscc1OCC)C(=O)OCC` it was 108 to 109 °C; in that of `Fc1cc(Cl)ccc1NC(=S)C1CCCC=C1N1CCOCC1` (stereo not given), 86 to 88 °C; in that of `Cc1sc(-c2ccccc2)nc1CN(C)[C@H]1CC[C@H](c2ccc3[nH]c(=O)oc3c2)CC1`, 246 to 248 °C.
To `CCCCCCCCCCCCCCCCCCOc1ccc(C(=O)O)cc1OCCCCCCCCCCCCCCCCCC` belongs 94 to 117 °C; to `FC(F)C(F)(F)Sc1nc(-c2cccs2)c(-c2cccs2)[nH]1`, 162 to 164 °C.
In the case of `O=c1cc(-c2ccncc2)nc2n1CC(O)CN2` (stereo not given) it was 305 to 307 °C; in that of `COc1nccnc1OCC(O)CN1CCC(N2CCc3ccccc3C2=O)CC1` (stereo not given), 167 to 169 °C; in that of `CCCCCCCCSc1ccc(C#N)c(C#N)c1`, 37 to 38 °C.
Consider `COc1ccccc1N1CCN(CCCNC(=O)NC23CC4CC(CC(C4)C2)C3)CC1`, for which the melting point is 181 to 182 °C.
In the case of `CC(C)C(=O)CC(=O)c1ccc(C(=O)c2ccccc2)cc1` it was 76.5 to 78 °C; in that of `COC(=O)COc1nc(Cl)c(Cl)cc1Cl`, 99 to 103 °C; in that of `CCCCCCn1c(=O)n(C2OC(CO)C(O)C2O)c2nc(N)[nH]c(=O)c21` (stereo not given), 196 to 199 °C.
To `CCC(O)(CC)[C@@H]1C[C@@H]([C@H](CC2CCCCC2)NC(=O)OC(C)(C)C)OC1=O` belongs 118 to 120 °C; to `CCC1(Br)Cc2c(Cl)ccc(OCC(=O)O)c2C1=O` (stereo not given), 136 to 146 °C; to `CC1CCC2(C)C(=CCC3C4CC(Br)C(=O)C4(C)CCC32)C1` (stereo not given), 186 to 188 °C.
As to `Nc1ccc2cccc(Oc3cc(-c4ccc(C(F)(F)F)cc4)ccn3)c2n1`, the melting point was 196 to 200 °C.
To `O=C(Nc1ccc2c(c1)CS(=O)(=O)N2)C(=O)N1CCC(Cc2ccccc2)CC1` belongs 181 to 182 °C.
In the case of `COc1ccc2c(N=O)c(O)ccc2c1` it was 147 to 148 °C; in that of `CSc1nn2c(O)cc(CN(C)C)nc2c1S(=O)(=O)c1ccccc1`, over 220 °C.
In the case of `COc1ccc(C#N)cc1/C=C/C(=O)O` it was 252 to 253 °C.
Regarding `O=C(O)c1cccc(CN2CCC(c3cn(CC4CC4)c4ccccc34)CC2)c1`, the melting point came out at 207 °C.
To `COC(=O)c1nc(C)c(-c2ccncc2)s1` belongs 121 to 123 °C; to `CC(=O)Nc1ccccc1N1CCc2ccccc21`, 125 to 128 °C; to `COC(=O)c1ccc(OC2=C(Oc3ccc(C(=O)OC)cc3)C(F)(F)C(F)(F)C2(F)F)cc1`, 67 °C.
To `COC(=O)C1CCN(c2ccc3nc4[nH]c(=O)[nH]c4cc3c2)CC1` belongs over 310 °C; to `N#CCc1ccc(-c2ccc(C(CC3CCOCC3)c3ccc(S(=O)(=O)C4CC4)cc3)[nH]2)nc1` (stereo not given), 139 to 141 °C.
In the case of `COC(=O)CCCC#Cc1cc(F)cc(C(F)(F)F)c1` it was 44 to 45 °C; in that of `COC(=O)c1c(C#N)ccc(NC(=NC#N)Nc2ccccc2Br)c1O`, 210 to 211 °C.
With `CC(C)(C)NS(=O)(=O)c1ccccc1-c1ccc(NC(=O)N(Cc2cccc(C(=N)N)c2)c2ccccc2)cc1`, the melting point is 140 to 141 °C.
In the case of `NC(=O)Cc1ccc(Nc2nc(OCC3CCCCC3)c3nc[nH]c3n2)cc1` it was 234 °C; in that of `O=C(O)C1COc2ccc(O)cc2O1` (stereo not given), 204 °C.
In the case of `COc1cccc2c1CCn1cc(-c3ccccc3)nc1C2OC1CCN(C)CC1` (stereo not given) it was 73 °C.
The molecule `CCNC1=NS(=O)N=C1NCCSCc1ccc(CN(C)C)o1` (stereo not given) yielded a melting point of 68 to 74 °C.
Molecule `Cc1ccc2cccc(OCc3c(Cl)ccc(S(=O)(=O)N4CCCC4C(=O)NCCCN)c3Cl)c2n1` (stereo not given) displayed a melting point of 130 to 132 °C.
In the case of `CC(C)(C)OC(=O)n1ccc(-c2ccc(F)cc2)c1-c1ccc(S(C)(=O)=O)cc1` it was 262 °C; in that of `Cc1cccc(CCCCCCCCC(=O)Cl)c1`, 96 to 98 °C.
In turn, `Cc1oc(-c2ccccc2)nc1COc1ccc(OC(C)(C)C(=O)O)cc1` had a melting point of 136 to 138 °C.
Molecule `CC(=O)NCCCn1cc(-c2cc3nccnc3[nH]2)c2ccccc21` came in with a melting point of 260 °C.
In the case of `CNS(=O)(=O)c1cc2c(c(C(=O)NCC3CCCN3C)c1)OCCO2` (stereo not given) it was 187 to 188 °C; in that of `CC(C)CNc1nccc(Oc2ccc(NC(=O)c3cc(F)cc(N4CCOCC4)c3)c3ccccc23)n1`, 96 to 97 °C.
The molecule `COC(=O)CCC(=O)c1ccc(-c2ccc(OC)cc2)cc1` returned a melting point of 96 to 100 °C.
In the case of `N#Cc1ccc2oc(-c3cccc(O)c3)cc2c1` it was 222 to 224 °C.
In turn, `CCOC(=O)C(C(=O)Nc1ccc(Br)cc1C)=S(C)C` displayed a melting point of 146 to 149 °C.
In the case of `CCOC(=O)CC(C)NC(=O)c1ccc(N2CCN(c3ccncc3)CC2)cc1` (stereo not given) it was 130 to 132 °C; in that of `O=C1NC(=O)c2c1ccc(N1C(=O)C=CC1=O)c2N1C(=O)C=CC1=O`, 180 to 200 °C.
In the case of `COc1ccc(CC2NC(=O)NC2=O)cc1` (stereo not given) it was 174 °C; in that of `O=C(c1cccnc1)N1CCC(c2ccccc2C(F)(F)F)=N1`, 95 to 97 °C; in that of `O=C(NCCc1ccccc1)c1ccc(S(=O)(=O)NC(=O)c2ccc(C(=O)NCCO)nc2)cc1`, 228 to 230 °C.
To `Cc1oc2c(C)c(C)c(NC(=O)c3ccc(F)cc3)c(C)c2c1-c1ccc(F)cc1` belongs 232 to 234 °C; to `N=C(Nc1ccc(F)c(NC(=O)/C=C/c2ccccc2Cl)c1)c1ccccc1`, 189 to 191 °C; to `COc1ccc(CC2Cc3cc(C)cnc3C(O)C2)cc1` (single isomer, unassigned; (+)), 132 to 134 °C.
`CC(C)n1ccnc1S(=O)(=O)c1ccc(O)cc1` registered a melting point of 152 to 153 °C.
On to `Fc1ccc(C(CN2CCCC2)=C2SCCCS2)cc1`, for which the melting point was in the range of 69 to 70 °C.
The molecule `CCOC(=O)c1ccc(Oc2ccc(C(C)=C3SCCCS3)cc2)cc1` yielded a melting point of 57 to 58 °C.
In turn, `Cc1noc(NS(=O)(=O)c2ccc(F)cc2)c1Br` came in with a melting point of 142 to 144 °C.
In the case of `CC1COc2c(F)c(Cl)cc3c(=O)c(C(=O)O)cn1c23` (stereo not given) it was over 300 °C.
In the case of `CCCCCCCCCCCCCCCCS(=O)(=O)NCCc1ccc(C(=O)O)cc1` it was 168 to 169 °C; in that of `COc1c(F)cc(F)c(OC)c1-c1ccc(C[C@H](NC(=O)c2c(Cl)cccc2Cl)C(=O)O)cc1`, 201 to 202 °C; in that of `COC(=O)[C@H]1C[C@H](n2c(Br)c(-c3cccc(OCc4ccccc4)c3)c3c(N)ncnc32)C1`, 124 to 125 °C.
To `CC1(C)CCC(C)(C)c2cc(C(N)C(=O)Nc3ccc(C(=O)O)cc3)ccc21` (stereo not given) belongs 203 to 204 °C; to `O=C(NCCO)C(=O)NCCO`, 166 to 169 °C.
